Experimental data published in the supplement of paper PMC9663587.

Assays:
Experiment in all cases: increase in dead-cell fraction, 72 h; higher = more death;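 note: breast cancer cell lines in 384-well plates, stained with Hoechst plus LIVE/DEAD far red dye and imaged, cells above an LDR intensity threshold counted dead, Hoechst-negative corpses included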
YKL-5-124 = compound: C=CC(=O)Nc1ccc(C(=O)Nc2[nH]nc3c2CN(C(=O)N[C@H](CN(C)C)c2ccccc2)C3(C)C)cc1 [YKL-5-124]
BSJ-03-123 = compound: CC(=O)c1c(C)c2cnc(Nc3ccc(N4CCN(CCOCCOCCOCCNC(=O)COc5cccc6c5C(=O)N(C5CCC(=O)NC5=O)C6=O)CC4)cn3)nc2n(C2CCCC2)c1=O [BSJ-03-123]
[1] = compound: CC(=O)c1c(C)c2cnc(Nc3ccc(N4CCNCC4)cn3)nc2n(C2CCCC2)c1=O
[2] = compound: CCN1CCN(Cc2ccc(Nc3ncc(F)c(-c4cc(F)c5nc(C)n(C(C)C)c5c4)n3)nc2)CC1
Neratinib/HKI272 = compound: CCOc1cc2ncc(C#N)c(Nc3ccc(OCc4ccccn4)c(Cl)c3)c2cc1NC(=O)/C=C/CN(C)C [Neratinib/HKI272]
[3] = compound: CCc1cnn2c(NCc3ccc[n+]([O-])c3)cc(N3CCCC[C@H]3CCO)nc12

With EVSAT the “increase in dead-cell fraction” value (YKL-5-124; 0.001 µM) was 0.0967, the “increase in dead-cell fraction” value (YKL-5-124; 0.003162 µM) was 0.0973 and the “increase in dead-cell fraction” value (YKL-5-124; 0.01 µM) was 0.147. The “increase in dead-cell fraction” value (YKL-5-124; 0.03162 µM) was 0.16, the “increase in dead-cell fraction” value (YKL-5-124; 0.1 µM) was 0.143 and the “increase in dead-cell fraction” value (YKL-5-124; 0.3162 µM) was 0.185. The “increase in dead-cell fraction” value (YKL-5-124; 1 µM) was 0.183, the “increase in dead-cell fraction” value (YKL-5-124; 3.162 µM) was 0.204 and the “increase in dead-cell fraction” value (YKL-5-124; 10 µM) was 0.697. For the same cell line, the “increase in dead-cell fraction” value (BSJ-03-123; 0.001 µM) was -0.0001, the “increase in dead-cell fraction” value (BSJ-03-123; 0.003162 µM) was 0.0011 and the “increase in dead-cell fraction” value (BSJ-03-123; 0.01 µM) was 0.0093. For the same cell line, the “increase in dead-cell fraction” value (BSJ-03-123; 0.03162 µM) was 0.0004, the “increase in dead-cell fraction” value (BSJ-03-123; 0.1 µM) was 0.0074 and the “increase in dead-cell fraction” value (BSJ-03-123; 0.3162 µM) was -0.0005. For the same cell line, the “increase in dead-cell fraction” value (BSJ-03-123; 1 µM) was 0.0163, the “increase in dead-cell fraction” value (BSJ-03-123; 3.162 µM) was 0.0309 and the “increase in dead-cell fraction” value (BSJ-03-123; 10 µM) was 0.221. The “increase in dead-cell fraction” value ([1]; 0.0003162 µM) was 0.0003, the “increase in dead-cell fraction” value ([1]; 0.001 µM) was -0.0039 and the “increase in dead-cell fraction” value ([1]; 0.003162 µM) was -0.002. The “increase in dead-cell fraction” value ([1]; 0.01 µM) was -0.0026, the “increase in dead-cell fraction” value ([1]; 0.03162 µM) was 0.0033 and the “increase in dead-cell fraction” value ([1]; 0.1 µM) was 0.0048. For the same cell line, the “increase in dead-cell fraction” value ([1]; 0.3162 µM) was 0.0108, the “increase in dead-cell fraction” value ([1]; 1 µM) was 0.0176 and the “increase in dead-cell fraction” value ([1]; 3.162 µM) was 0.0205. The “increase in dead-cell fraction” value ([2]; 0.001 µM) was -0.0003, the “increase in dead-cell fraction” value ([2]; 0.003162 µM) was -0.0008 and the “increase in dead-cell fraction” value ([2]; 0.01 µM) was -0.0013. For the same cell line, the “increase in dead-cell fraction” value ([2]; 0.03162 µM) was 0.0044, the “increase in dead-cell fraction” value ([2]; 0.1 µM) was 0.0048 and the “increase in dead-cell fraction” value ([2]; 0.3162 µM) was 0.0122. The “increase in dead-cell fraction” value ([2]; 1 µM) was 0.0226, the “increase in dead-cell fraction” value ([2]; 3.162 µM) was 0.0299 and the “increase in dead-cell fraction” value ([2]; 10 µM) was 0.798. The “increase in dead-cell fraction” value (Neratinib/HKI272; 0.0003162 µM) was -0.0012, the “increase in dead-cell fraction” value (Neratinib/HKI272; 0.001 µM) was -0.002 and the “increase in dead-cell fraction” value (Neratinib/HKI272; 0.003162 µM) was -0.0011. For the same cell line, the “increase in dead-cell fraction” value (Neratinib/HKI272; 0.01 µM) was -0.0031, the “increase in dead-cell fraction” value (Neratinib/HKI272; 0.03162 µM) was -0.0026 and the “increase in dead-cell fraction” value (Neratinib/HKI272; 0.1 µM) was -0.0027. For the same cell line, the “increase in dead-cell fraction” value (Neratinib/HKI272; 0.3162 µM) was -0.002, the “increase in dead-cell fraction” value (Neratinib/HKI272; 1 µM) was 0.0019 and the “increase in dead-cell fraction” value (Neratinib/HKI272; 3.162 µM) was 0.0083. For the same cell line, the “increase in dead-cell fraction” value ([3]; 0.0001 µM) was -0.0004, the “increase in dead-cell fraction” value ([3]; 0.0003162 µM) was 0.0006 and the “increase in dead-cell fraction” value ([3]; 0.001 µM) was 0.0006. For the same cell line, the “increase in dead-cell fraction” value ([3]; 0.003162 µM) was -0.003, the “increase in dead-cell fraction” value ([3]; 0.01 µM) was -0.0037 and the “increase in dead-cell fraction” value ([3]; 0.03162 µM) was 0.107.
